For orientation: IC50 means the concentration at which inhibition is half-maximal.

Counter-ions that a name gives are not always drawn.

The values below come from patent US5849736A, “Isoxazoline and isoxazole fibrinogen receptor antagonists” (The DuPont Merck Pharmaceutical Company, priority 1995, dated 1998).

For the first test, the system named is platelet aggregation in human platelet rich plasma (PRP). Nature of the test: Platelet Aggregation Assay (platelet rich plasma, with or without esterase pretreatment). Type of test: cell-based. The following applies: Platelet, preincubated with 100 IU/mL porcine liver esterase 2 hours at 37° C., 100 μM ADP, read-out: Platelet Aggregation Assay IC50 (with esterase). How it is done:
Venous blood was obtained from the arm of a healthy human donor who was drug-free and aspirin-free for at least two weeks prior to blood collection. Blood was collected into 10 mL citrated Vacutainer tubes. The blood was centrifuged for 15 minutes at 150×g at room temperature, and platelet-rich plasma (PRP) was removed. The remaining blood was centrifuged for 15 minutes at 1500×g at room temperature, and platelet-poor plasma (PPP) was removed. Samples were assayed on a aggregometer (PAP-4 Platelet Aggregation Profiler), using PPP as the blank (100% transmittance). 200 μL of PRP was added to each micro test tube, and transmittance was set to 0%. 20 μL of various agonists (ADP, collagen, arachidonate, epinephrine, thrombin) were added to each tube, and the aggregation profiles were plotted (% transmittance versus time). The results are expressed as % inhibition of agonist-induced platelet aggregation. For the IC50 evaluation, the test compounds were added at various concentrations prior to the activation of the platelets.
Ester prodrugs were preincubated (10^-3 M F.C.) with 100 IU/mL Porcine liver esterase (Sigma Chemical Co., St. Louis, Mo., #E-3128) for 2 hours at 37° C. Aliquots are then diluted in 0.1M Tris, pH 7.4, to the desired concentrations. Aliquots of 20 μl of the esterase pretreated prodrugs are added to 200 μl of human platelet rich plasma. Samples were placed in platelet profiler (aggregometer) for 8 minutes at 37° C., followed by the addition of 100 μM Adenosine Diphosphate, (Sigma Chemical Co., St. Louis, Mo., #A-6521), to induce platelet aggregation. Platelet aggregation was allowed to proceed for 5 minutes. Percent inhibition is calculated using percent aggregation in the presence of the test compound divided by percent aggregation of control, times 100. This value is subtracted from 100, yielding percent inhibition. Calculation of IC50 is performed on a Texas Instruments TI59 with an IC50 program.
Table A below sets forth the antiplatelet activity of representative compounds of the present invention. The indicated compounds were tested for their ability to inhibit platelet aggregation (using platelet rich plasma (PRP)). The IC50 value (the concentration of antagonist which inhibits platelet aggregation by 50% relative to a control lacking the antagonist) is shown. In Table 5 the IC50 values are expressed as: +++=IC50 of <10 μM; ++=IC50 of 10-50 μM; +=IC50 of 50-100 μM (μM=micromolar).
As to `COC(=O)CC(CSc1ccccc1)NC(=O)CC1CC(c2ccc(C(=N)N)cc2)=NO1` (racemic) [Example 350, Methyl 3(R,S)-N-(R,S)-{5-[3-(4-amidinophenyl)isoxazolin-5-ylacetyl]amino}-4-(phenylthio)butanoate hydrochloric acid salt], the IC50 was under 10 µM. For the compound `COC(=O)CC(CNS(=O)(=O)c1ccccc1)NC(=O)CC1CC(c2ccc(C(=N)N)cc2)=NO1` (racemic) [Example 359, Methyl 3(R,S) -{5(R,S)-N-[3-(4-amidinophenyl)isoxazolin-5-ylacetyl]amino}-4-(phenylsulfonamido)butanoate . trifluoroacetic acid salt], the IC50 is under 10 µM. The same measure, in the same setting: to `CCCCS(=O)(=O)NCC(CC(=O)OC)NC(=O)CC1CC(c2ccc(C(=N)N)cc2)=NO1` (racemic) [Example 362, Methyl 3(R,S)-{5(R,S)-N-[3-(4-amidinophenyl)isoxazolin-5-ylacetyl]amino}-4-(n-butylsulfonamido)butanoate . trifluoroacetic acid salt] belongs under 10 µM; to `COC(=O)CC(CC(=O)OC)NC(=O)CC1CC(c2ccc(C(=N)N)cc2)=NO1` (racemic) [Example 365, Methyl {5(R,S)-N-[3-(4-amidinophenyl)isoxazolin-5-ylacetyl]amino}-4-(methoxycarbonyl)butanoate . trifluoroacetic acid salt], under 10 µM. The same measure, in the same setting: to `COC(=O)CCC(CC(=O)OC)NC(=O)CC1CC(c2ccc(C(=N)N)cc2)=NO1` (racemic) [Example 368, trifluoroacetic acid salt] belongs under 10 µM; to `COC(=O)CC(NC(=O)CC1CC(c2ccc(C(=N)N)cc2)=NO1)c1ccccc1` (stereo not shown) [Example 89], under 10 µM; to `CCC(CC(=O)OC)NC(=O)CC1CC(c2ccc(C(=N)N)cc2)=NO1` (stereo not shown) [Example 115], under 10 µM. Take `COC(=O)C[C@@H](CCc1ccccc1)NC(=O)CC1CC(c2ccc(C(=N)N)cc2)=NO1` (stereo partly drawn) [Example 120a, Methyl 3(R)-{5(R,S)-N-[3-(4-amidinophenyl)isoxazolin-5-ylacetyl]amino}-3-phenethylpropanoate]: the IC50 was under 10 µM. The same measure, in the same setting: then `COC(=O)C[C@H](CCc1ccccc1)NC(=O)CC1CC(c2ccc(C(=N)N)cc2)=NO1` (stereo partly drawn) [Example 120b, Methyl 3(S)-{5(R,S)-N-[3-(4-amidinophenyl)isoxazolin-5-ylacetyl]amino}-3-phenethylpropanoate], with under 10 µM.

In the case of `CCOC(=O)CC(CN(C)C)NC(=O)CC1CC(c2ccc(C(=N)N)cc2)=NO1` (stereo not shown) [Example 166], the IC50 is under 10 µM. Same read-out and setting: then `N=C(N)c1ccc(C2=NOC(CC(=O)NC[C@H](N)C(=O)O)C2)cc1` (stereo partly drawn) [Example 275, N^3-[3-(4-amidinophenyl)isoxazolin-5(R,S)-ylacetyl]-L-2,3-diaminopropionic acid TFA salt], with under 10 µM; and `N=C(N)c1ccc(C2=NOC(CC(=O)NC[C@H](NC(=O)OCc3ccccc3)C(=O)O)C2)cc1` (stereo partly drawn) [Example 276, N^2 -Cbz-N^3-[3-(4-amidinophenyl)isoxazolin-5(R, S) -ylacetyl]-L-2,3-diaminopropionic acid TFA salt], with under 10 µM.

Turning to `CCCCOC(=O)N[C@@H](CNC(=O)CC1CC(c2ccc(C(=N)N)cc2)=NO1)C(=O)O` (stereo partly drawn) [Example 278, N^2-n-butyloxycarbonyl-N^3-[3-(4-amidinophenyl)isoxazolin-5(R, S)-ylacetyl]-L-2,3-diaminopropionic acid TFA salt], the IC50 is under 10 µM. Regarding `Cc1ccc(S(=O)(=O)NC(CNC(=O)CC2CC(c3ccc(C(=N)N)cc3)=NO2)C(=O)O)cc1` (stereo not shown) [Example 300], the IC50 was under 10 µM. The same measure, in the same setting: to `COC(=O)C(CNC(=O)CC1CC(c2ccc(C(=N)N)cc2)=NO1)NC(=O)OCc1ccccc1` (stereo not shown) [Example 312] belongs under 10 µM. Still for that read-out and setting: to `CCCCOC(=O)N[C@@H](CNC(=O)C[C@@H]1CC(c2ccc(C(=N)N)cc2)=NO1)C(=O)OC` [Example 314A, Methyl N^2-n-butyloxycarbonyl-N^3-[3-(4-amidinophenyl)isoxazolin-5(S)-ylacetyl]-(S)-2,3-diaminopropionate TFA salt] belongs under 10 µM.

The same test, now with this note: Platelet, without esterase, given as a bound, not a class symbol, read-out: Platelet Aggregation Assay IC50 (without esterase).
`O=C(O)CC1CC(c2ccc(OCC3CCNCC3)cc2)=NO1` (racemic) [Example 7, 3-[4-(Piperidin-4-ylmethoxy)phenyl]-(5R,S)-isoxazolin-5-ylacetic Acid, Trifluoroacetic Acid Salt]: the IC50 is over 100 µM. Still for that read-out and setting: to `COC(=O)C1(CC(=O)O)CC(c2ccc(OCCC3CCNCC3)cc2)=NO1` (racemic) [Example 33, Trifluoroacetic Acid Salt] belongs over 100 µM; to `O=C(O)CCN1C(=O)CC2(CC(CCC3CCNCC3)=NO2)C1=O` (racemic) [Example 189, 5(R,S)-(2-Piperidin-4-ylethyl-8-(2-carboxyethyl)-1-oxa-2,8-diazaspiro[4.4]non-2-ene-7,9-dione], over 100 µM.

Staying with this test, now noted: Platelet, without esterase, read-out: Platelet Aggregation Assay IC50 (without esterase).
Take `O=C(O)CC1CC(c2ccc(OCCC3CCNCC3)cc2)=NO1` (racemic) [Example 1, 3-(4-[2-Piperidin-4-yl)ethoxy]phenyl]-(5R,S)-isoxazolin-5-ylacetic Acid, Trifluoroacetic Acid Salt]: the IC50 was under 10 µM.

For the compound `O=C(O)CCC1CC(c2ccc(OCC3CCNCC3)cc2)=NO1` (racemic) [Example 6, 3-(3-[4-(Piperidin-4-ylmethoxy)phenyl]-(5R,S)-isoxazolin-5-yl)propionic Acid, Trifluoroacetic Acid Salt], the IC50 was under 10 µM.

`O=C(O)CCC1CC(c2ccc(OCCC3CCNCC3)cc2)=NO1` (racemic) [Example 8, 3-[4-(2-Piperidin-4-yl)ethoxyphenyl]-(5R,S) -isoxazolin-5-ylpropionic Acid, Trifluoroacetic Acid Salt]: the concentration for half-maximal inhibition (IC50) fell in the range of 50 to 100 µM. Take `N=C(N)c1ccc(C2=NOC(CC(=O)NC(CC(=O)O)c3ccccc3)C2)cc1` (racemic) [Example 43, N-[3-(4-Amidinophenyl)isoxazolin-5(R,S)-ylacetyl]-(R,S)-3-amino-3-phenylpropanoic Acid]: the IC50 was under 10 µM.

As for `N=C(N)c1ccc(C2=NOC(CC(=O)N3CCCCCC3CC(=O)O)C2)cc1` (racemic) [Example 377, 2-(R,S)-2-Carboxymethyl-1-{5-(R,S)-N-[3-(4-amidinophenyl)isoxazolin-5-ylacetyl]}azepine], the IC50 was under 10 µM. Turning to `COC(=O)CC1C(=O)NCCN1C(=O)CC1CC(c2ccc(C(=N)N)cc2)=NO1` (racemic) [Example 400, 3-(R,S)-(Methoxy-2-oxoethyl)-4-{5-(R,S)-N-[3-(4-amidinophenyl)isoxazolin-5-ylacetyl]}piperazin-2-one], the IC50 is under 10 µM. On the same count and under the same terms, to `O=C(N[C@H](C(=O)O)C1CC(c2ccc(OCCC3CCNCC3)cc2)=NO1)OCc1ccccc1` (single isomer, unassigned) [4 (isomer A)] belongs 10 to 50 µM; to `O=C(N[C@H](C(=O)O)C1CC(c2ccc(OCCC3CCNCC3)cc2)=NO1)OCc1ccccc1` (single isomer, unassigned) [4 (isomer B), Trifluoroacetic Acid Salt], 10 to 50 µM; to `CCCCS(=O)(=O)NC(CC1CC(c2ccc(OCC3CCNCC3)cc2)=NO1)C(=O)O` (single isomer, unassigned) [9 (isomer A)], under 10 µM. Still for that read-out and setting: to `O=C(O)CCCN1C(=O)CC2(CC(CCC3CCNCC3)=NO2)C1=O` (stereo not shown) [Example 190] belongs 50 to 100 µM.

Staying with this test, now noted: preincubated with 100 IU/mL porcine liver esterase 2 hours at 37° C., 100 μM ADP, read-out: Platelet Aggregation Assay IC50 (with esterase).
Turning to `COC(=O)C[C@@H](Cc1ccccc1)NC(=O)CC1CC(c2ccc(C(=N)N)cc2)=NO1` (stereo partly drawn) [119A (3R)], the IC50 is under 10 µM. For `COC(=O)C[C@H](Cc1ccccc1)NC(=O)CC1CC(c2ccc(C(=N)N)cc2)=NO1` (stereo partly drawn) [119B (3S)], the IC50 was under 10 µM. Turning to `COC(=O)C[C@@H](CCc1ccccc1)NC(=O)C[C@H]1CC(c2ccc(C(=N)N)cc2)=NO1` [120C (3R)], the IC50 was under 10 µM. Turning to `COC(=O)[C@H](CNC(=O)CC1CC(c2ccc(C(=N)N)cc2)=NO1)NS(=O)(=O)Cc1ccccc1` (stereo partly drawn) [328 (2S)], the IC50 was under 10 µM.

The test is the same for the next values; noted with them: without esterase, read-out: Platelet Aggregation Assay IC50 (without esterase).
As for `CCCCS(=O)(=O)NC(CC1CC(c2ccc(OCC3CCNCC3)cc2)=NO1)C(=O)O` (single isomer, unassigned) [9 (isomer B), 3-(3-[4-{(Piperidin-4-yl)methoxy}phenyl]isoxazolin-5-yl{[butanesulfonyl]amino}]propionic Acid, Trifluoroacetic Acid Salt (Less Polar Diastereomer)], the IC50 is under 10 µM.
